Reference: PubChem BioAssay AID1963845 (Molecular Pharmacology Branch, DTP, NCI, 2024)
pIC50: −log10 of the molar value.

Tested on: 429239-143-T-J1-PDC complex spheroid viability
Assay: Anticancer human tumor 429239-143-T-J1-PDC patient-derived small cell lung carcinoma cell line growth inhibition [POLQ]
Conditions: for pIC50: curve of first compound; for viability, T/C: stronger effect = lower value
In short: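 Growth inhibition in 3D: complex spheroids (tumor PDC, HUVEC, MSC) treated with POLQ inhibitor combinations; where Cmax unknown, highest tested concentration 10 microM, except SN-38 at 1 microM.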

[1] = second compound 0.0316 µM, first compound 0.0316 µM
[2] = second compound 0.0316 µM, first compound 0.1 µM
[3] = second compound 0.0316 µM, first compound 0.316 µM
[4] = second compound 0.0316 µM, first compound 1 µM
[5] = second compound 0.0316 µM, first compound 3.16 µM
[6] = second compound 0.0316 µM, first compound 10 µM
[7] = second compound 0.1 µM, first compound 0.0316 µM
[8] = second compound 0.1 µM, first compound 0.1 µM
[9] = second compound 0.1 µM, first compound 0.316 µM
[10] = second compound 0.1 µM, first compound 1 µM
[11] = second compound 0.1 µM, first compound 3.16 µM
[12] = second compound 0.1 µM, first compound 10 µM
[13] = second compound 0.316 µM, first compound 0.0316 µM
[14] = second compound 0.316 µM, first compound 0.1 µM
[15] = second compound 0.316 µM, first compound 0.316 µM
[16] = second compound 0.316 µM, first compound 1 µM
[17] = second compound 0.316 µM, first compound 3.16 µM
[18] = second compound 0.316 µM, first compound 10 µM
[19] = second compound 1 µM, first compound 0.0316 µM
[20] = second compound 1 µM, first compound 0.1 µM
[21] = second compound 1 µM, first compound 0.316 µM
[22] = second compound 1 µM, first compound 1 µM
[23] = second compound 1 µM, first compound 3.16 µM
[24] = second compound 1 µM, first compound 10 µM
[25] = second compound 3.16 µM, first compound 0.0316 µM
[26] = second compound 3.16 µM, first compound 0.1 µM
[27] = second compound 3.16 µM, first compound 0.316 µM
[28] = second compound 3.16 µM, first compound 1 µM
[29] = second compound 3.16 µM, first compound 3.16 µM
[30] = second compound 3.16 µM, first compound 10 µM
[31] = second compound 10 µM, first compound 0.0316 µM
[32] = second compound 10 µM, first compound 0.1 µM
[33] = second compound 10 µM, first compound 0.316 µM
[34] = second compound 10 µM, first compound 1 µM
[35] = second compound 10 µM, first compound 3.16 µM
[36] = second compound 10 µM, first compound 10 µM
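Note: luminescence signal used as surrogate measure of viable cells; spheroids exposed to compounds for seven days before readout.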
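Throughout, for viability, T/C: 100% = DMSO vehicle control viability as luminescence relative to vehicle.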

CC(C)n1c(=O)n(C)c2cnc3cc(F)c(-c4ccc(OCCCN5CCCCC5)nc4)cc3c21 + COC1C(OC(N)=O)C(O)C(Oc2ccc3c(O)c(NC(=O)c4ccc(O)c(CC=C(C)C)c4)c(=O)oc3c2C)OC1(C)C
pIC50 (second compound 0.0316 µM): < 5.00
pIC50 (second compound 0.1 µM): < 5.00
pIC50 (second compound 0.316 µM): < 5.00
pIC50 (second compound 1 µM): < 5.00
pIC50 (second compound 3.16 µM): < 5.00
pIC50 (second compound 10 µM): < 5.00
viability, T/C [1]: 107%
viability, T/C [2]: 86.6%
viability, T/C [3]: 99%
viability, T/C [4]: 109%
viability, T/C [5]: 104%
viability, T/C [6]: 85.4%
viability, T/C [7]: 102%
viability, T/C [8]: 93.7%
viability, T/C [9]: 82.7%
viability, T/C [10]: 96.8%
viability, T/C [11]: 82.9%
viability, T/C [12]: 84.7%
viability, T/C [13]: 109%
viability, T/C [14]: 91%
viability, T/C [15]: 82.3%
viability, T/C [16]: 103%
viability, T/C [17]: 90.6%
viability, T/C [18]: 72.5%
viability, T/C [19]: 93.2%
viability, T/C [20]: 104%
viability, T/C [21]: 91.5%
viability, T/C [22]: 96.9%
viability, T/C [23]: 81.5%
viability, T/C [24]: 70.2%
viability, T/C [25]: 101%
viability, T/C [26]: 84.8%
viability, T/C [27]: 90.9%
viability, T/C [28]: 100%
viability, T/C [29]: 87.6%
viability, T/C [30]: 83.6%
viability, T/C [31]: 86.9%
viability, T/C [32]: 85.8%
viability, T/C [33]: 88.7%
viability, T/C [34]: 102%
viability, T/C [35]: 74%
viability, T/C [36]: 88.4%

CC1COCCN1c1cc(C2(O)CC3CCC(C2)O3)c2cnn(-c3ccn[nH]3)c2n1 (stereo not drawn) + COC1C(OC(N)=O)C(O)C(Oc2ccc3c(O)c(NC(=O)c4ccc(O)c(CC=C(C)C)c4)c(=O)oc3c2C)OC1(C)C
pIC50 (second compound 0.0316 µM): 7.31
pIC50 (second compound 0.1 µM): 7.20
pIC50 (second compound 0.316 µM): 7.31
pIC50 (second compound 1 µM): 7.18
pIC50 (second compound 3.16 µM): 7.24
pIC50 (second compound 10 µM): 7.36
viability, T/C [1]: 60.6%
viability, T/C [2]: 32.4%
viability, T/C [3]: 15.4%
viability, T/C [4]: 9.3%
viability, T/C [5]: 7.39%
viability, T/C [6]: 6.59%
viability, T/C [7]: 69.8%
viability, T/C [8]: 37.4%
viability, T/C [9]: 16%
viability, T/C [10]: 9.73%
viability, T/C [11]: 7.67%
viability, T/C [12]: 5.38%
viability, T/C [13]: 62.4%
viability, T/C [14]: 28.4%
viability, T/C [15]: 18.1%
viability, T/C [16]: 9.94%
viability, T/C [17]: 6.92%
viability, T/C [18]: 5.8%
viability, T/C [19]: 67.5%
viability, T/C [20]: 39.9%
viability, T/C [21]: 19.2%
viability, T/C [22]: 7.99%
viability, T/C [23]: 7.48%
viability, T/C [24]: 5.25%
viability, T/C [25]: 69.7%
viability, T/C [26]: 31.6%
viability, T/C [27]: 17.1%
viability, T/C [28]: 8.72%
viability, T/C [29]: 6.53%
viability, T/C [30]: 5.31%
viability, T/C [31]: 56.7%
viability, T/C [32]: 32%
viability, T/C [33]: 18.1%
viability, T/C [34]: 8.41%
viability, T/C [35]: 9.41%
viability, T/C [36]: 5.38%

CCc1cc2c(N3CCc4c(cc(Cn5ccnc5)cc4-c4cn(C)nc4C(F)(F)F)C3=O)ccnc2c(OC)n1 + COC1C(OC(N)=O)C(O)C(Oc2ccc3c(O)c(NC(=O)c4ccc(O)c(CC=C(C)C)c4)c(=O)oc3c2C)OC1(C)C
pIC50 (second compound 0.0316 µM): 5.56
pIC50 (second compound 0.1 µM): 5.58
pIC50 (second compound 0.316 µM): 5.58
pIC50 (second compound 1 µM): 5.64
pIC50 (second compound 3.16 µM): 5.76
pIC50 (second compound 10 µM): 6.07
viability, T/C [1]: 93.4%
viability, T/C [2]: 96.9%
viability, T/C [3]: 71.1%
viability, T/C [4]: 68.2%
viability, T/C [5]: 45.8%
viability, T/C [6]: 39.6%
viability, T/C [7]: 107%
viability, T/C [8]: 93%
viability, T/C [9]: 69.5%
viability, T/C [10]: 74%
viability, T/C [11]: 42.3%
viability, T/C [12]: 32.6%
viability, T/C [13]: 86.2%
viability, T/C [14]: 74.3%
viability, T/C [15]: 73.5%
viability, T/C [16]: 65.5%
viability, T/C [17]: 45.1%
viability, T/C [18]: 33.4%
viability, T/C [19]: 89.7%
viability, T/C [20]: 83.9%
viability, T/C [21]: 61.8%
viability, T/C [22]: 62%
viability, T/C [23]: 49.2%
viability, T/C [24]: 32.8%
viability, T/C [25]: 96.7%
viability, T/C [26]: 74.8%
viability, T/C [27]: 71.5%
viability, T/C [28]: 50.5%
viability, T/C [29]: 46.4%
viability, T/C [30]: 37.3%
viability, T/C [31]: 91.8%
viability, T/C [32]: 85.7%
viability, T/C [33]: 67.8%
viability, T/C [34]: 46.7%
viability, T/C [35]: 40.2%
viability, T/C [36]: 39.6%

O=C(Nc1ccc(O)c(NS(=O)(=O)c2ccc(F)cc2)c1)c1ccc(-c2ccccc2)cc1 + COC1C(OC(N)=O)C(O)C(Oc2ccc3c(O)c(NC(=O)c4ccc(O)c(CC=C(C)C)c4)c(=O)oc3c2C)OC1(C)C
pIC50 (second compound 0.0316 µM): < 5.00
pIC50 (second compound 0.1 µM): < 5.00
pIC50 (second compound 0.316 µM): < 5.00
pIC50 (second compound 1 µM): < 5.00
pIC50 (second compound 3.16 µM): < 5.00
pIC50 (second compound 10 µM): < 5.00
viability, T/C [1]: 110%
viability, T/C [2]: 97.1%
viability, T/C [3]: 108%
viability, T/C [4]: 105%
viability, T/C [5]: 99%
viability, T/C [6]: 66.7%
viability, T/C [7]: 90.2%
viability, T/C [8]: 92.9%
viability, T/C [9]: 99.6%
viability, T/C [10]: 121%
viability, T/C [11]: 113%
viability, T/C [12]: 61.3%
viability, T/C [13]: 101%
viability, T/C [14]: 83.7%
viability, T/C [15]: 95.2%
viability, T/C [16]: 105%
viability, T/C [17]: 106%
viability, T/C [18]: 64.4%
viability, T/C [19]: 104%
viability, T/C [20]: 92.8%
viability, T/C [21]: 93%
viability, T/C [22]: 90.8%
viability, T/C [23]: 107%
viability, T/C [24]: 59.4%
viability, T/C [25]: 98.9%
viability, T/C [26]: 90%
viability, T/C [27]: 100%
viability, T/C [28]: 98.7%
viability, T/C [29]: 93.3%
viability, T/C [30]: 76.9%
viability, T/C [31]: 99.1%
viability, T/C [32]: 85.9%
viability, T/C [33]: 99%
viability, T/C [34]: 102%
viability, T/C [35]: 113%
viability, T/C [36]: 68.6%
